Experimental data from ChEMBL document CHEMBL4507256 (2021).

Tests used:
[1] = system: Tyrosine-protein kinase ABL1 (Homo sapiens), P00519 [Q252H]; details: Compound concentration 1000.0 nM
[2] = target: Atypical kinase COQ8B, mitochondrial (Homo sapiens) (UniProt Q96D53); details: Compound concentration 1000.0 nM
[3] = target: RAC-gamma serine/threonine-protein kinase (Homo sapiens) (UniProt Q9Y243); details: Compound concentration 1000.0 nM
[4] = target: Bone morphogenetic protein receptor type-1B (Homo sapiens) (UniProt O00238); details: Compound concentration 1000.0 nM
[5] = target: Mitotic checkpoint serine/threonine-protein kinase BUB1 (Homo sapiens) (UniProt O43683); details: Compound concentration 1000.0 nM
[6] = target: Cyclin-dependent kinase 11B (Homo sapiens) (UniProt P21127); details: Compound concentration 1000.0 nM
[7] = target: Serine/threonine-protein kinase Chk1 (Homo sapiens) (UniProt O14757); details: Compound concentration 1000.0 nM
[8] = target: Death-associated protein kinase 1 (Homo sapiens) (UniProt P53355); details: Compound concentration 1000.0 nM
[9] = target: Serine/threonine-protein kinase DCLK3 (Homo sapiens) (UniProt Q9C098); details: Compound concentration 1000.0 nM
[10] = system: Epidermal growth factor receptor (Homo sapiens), P00533 [L858R,T790M]; details: Compound concentration 1000.0 nM
[11] = target: Fibroblast growth factor receptor 2 (Homo sapiens) (UniProt P21802); details: Compound concentration 1000.0 nM
[12] = target: Tyrosine-protein kinase FRK (Homo sapiens) (UniProt P42685); details: Compound concentration 1000.0 nM
[13] = target: Cyclin-G-associated kinase (Homo sapiens) (UniProt O14976); details: Compound concentration 1000.0 nM
[14] = system: Mast/stem cell growth factor receptor Kit (Homo sapiens), P10721 [D816V]; details: Compound concentration 1000.0 nM
[15] = target: Tyrosine-protein kinase Lyn (Homo sapiens) (UniProt P07948); details: Compound concentration 1000.0 nM
[16] = target: Mitogen-activated protein kinase kinase kinase 2 (Homo sapiens) (UniProt Q9Y2U5); details: Compound concentration 1000.0 nM
[17] = target: MAP kinase-activated protein kinase 2 (Homo sapiens) (UniProt P49137); details: Compound concentration 1000.0 nM
[18] = target: Serine/threonine-protein kinase MARK1 (Homo sapiens) (UniProt Q9P0L2); details: Compound concentration 1000.0 nM
[19] = system: Hepatocyte growth factor receptor (Homo sapiens), P08581 [M1250T]; details: Compound concentration 1000.0 nM
[20] = target: Mitogen-activated protein kinase kinase kinase 10 (Homo sapiens) (UniProt Q02779); details: Compound concentration 1000.0 nM
[21] = target: Myosin light chain kinase, smooth muscle (Homo sapiens) (UniProt Q15746); details: Compound concentration 1000.0 nM
[22] = target: Myosin light chain kinase 2, skeletal/cardiac muscle (Homo sapiens) (UniProt Q9H1R3); details: Compound concentration 1000.0 nM
[23] = target: Serine/threonine-protein kinase NLK (Homo sapiens) (UniProt Q9UBE8); details: Compound concentration 1000.0 nM
[24] = target: Serine/threonine-protein kinase PAK 2 (Homo sapiens) (UniProt Q13177); details: Compound concentration 1000.0 nM
[25] = target: Serine/threonine-protein kinase PAK 5 (Homo sapiens) (UniProt Q9P286); details: Compound concentration 1000.0 nM
[26] = target: Cyclin-dependent kinase 18 (Homo sapiens) (UniProt Q07002); details: Compound concentration 1000.0 nM
[27] = target: Serine/threonine-protein kinase PLK3 (Homo sapiens) (UniProt Q9H4B4); details: Compound concentration 1000.0 nM
[28] = target: Protein-tyrosine kinase 2-beta (Homo sapiens) (UniProt Q14289); details: Compound concentration 1000.0 nM
[29] = target: RAF proto-oncogene serine/threonine-protein kinase (Homo sapiens) (UniProt P04049); details: Compound concentration 1000.0 nM
[30] = system: Proto-oncogene tyrosine-protein kinase receptor Ret (Homo sapiens), P07949 [V804M]; details: Compound concentration 1000.0 nM
[31] = target: Ribosomal protein S6 kinase alpha-1 (Homo sapiens) (UniProt Q15418); details: Compound concentration 1000.0 nM
[32] = target: Ribosomal protein S6 kinase alpha-2 (Homo sapiens) (UniProt Q15349); details: Compound concentration 1000.0 nM
[33] = target: Serine/threonine-protein kinase Sgk2 (Homo sapiens) (UniProt Q9HBY8); details: Compound concentration 1000.0 nM
[34] = target: Serine/threonine-protein kinase TBK1 (Homo sapiens) (UniProt Q9UHD2); details: Compound concentration 1000.0 nM
[35] = target: High affinity nerve growth factor receptor (Homo sapiens) (UniProt P04629); details: Compound concentration 1000.0 nM
[36] = target: Non-receptor tyrosine-protein kinase TYK2 (Homo sapiens) (UniProt P29597); details: Compound concentration 1000.0 nM
[37] = target: Serine/threonine-protein kinase ULK3 (Homo sapiens) (UniProt Q6PHR2); details: Compound concentration 1000.0 nM
[38] = target: Wee1-like protein kinase (Homo sapiens) (UniProt P30291); details: Compound concentration 1000.0 nM
[39] = target: Serine/threonine-protein kinase 32C (Homo sapiens) (UniProt Q86UX6); details: Compound concentration 1000.0 nM
[40] = target: 5-hydroxytryptamine receptor 1D (Homo sapiens) (UniProt P28221); details: Compound concentration 10.0 uM
[41] = target: GABA-A receptor; anion channel (Rattus norvegicus) (UniProt O09028+P15431+P18506+P18508+P19969+P20236+P23574+P23576+P28471+P28473+P30191+P62813+P63079+P63138+Q91ZM7+Q9ES14); details: Compound concentration 10.0 uM
[42] = target: Histamine H3 receptor (Homo sapiens) (UniProt Q9Y5N1); details: Compound concentration 10.0 uM
[43] = target: Histamine H4 receptor (Homo sapiens) (UniProt Q9H3N8); details: Compound concentration 10.0 uM
[44] = target: Alpha-2C adrenergic receptor (Homo sapiens) (UniProt P18825); details: Compound concentration 10.0 uM

Chain of Serine/threonine-protein kinase NLK (Homo sapiens) (Q9UBE8 whole entry): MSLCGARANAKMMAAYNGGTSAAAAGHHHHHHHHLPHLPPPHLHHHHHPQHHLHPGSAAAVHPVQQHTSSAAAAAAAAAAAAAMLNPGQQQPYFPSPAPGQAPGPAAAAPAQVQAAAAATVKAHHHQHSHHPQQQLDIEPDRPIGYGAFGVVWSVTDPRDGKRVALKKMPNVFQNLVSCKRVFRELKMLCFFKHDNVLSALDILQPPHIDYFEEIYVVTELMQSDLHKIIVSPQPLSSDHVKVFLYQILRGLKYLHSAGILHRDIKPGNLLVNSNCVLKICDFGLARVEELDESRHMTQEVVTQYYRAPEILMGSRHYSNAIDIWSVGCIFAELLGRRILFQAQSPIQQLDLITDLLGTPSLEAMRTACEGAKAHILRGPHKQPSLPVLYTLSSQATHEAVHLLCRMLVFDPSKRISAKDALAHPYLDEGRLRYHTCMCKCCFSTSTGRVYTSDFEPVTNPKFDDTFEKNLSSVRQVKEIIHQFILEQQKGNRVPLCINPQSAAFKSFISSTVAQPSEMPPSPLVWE
Chain of MAP kinase-activated protein kinase 2 (Homo sapiens) (P49137 whole entry, looked up): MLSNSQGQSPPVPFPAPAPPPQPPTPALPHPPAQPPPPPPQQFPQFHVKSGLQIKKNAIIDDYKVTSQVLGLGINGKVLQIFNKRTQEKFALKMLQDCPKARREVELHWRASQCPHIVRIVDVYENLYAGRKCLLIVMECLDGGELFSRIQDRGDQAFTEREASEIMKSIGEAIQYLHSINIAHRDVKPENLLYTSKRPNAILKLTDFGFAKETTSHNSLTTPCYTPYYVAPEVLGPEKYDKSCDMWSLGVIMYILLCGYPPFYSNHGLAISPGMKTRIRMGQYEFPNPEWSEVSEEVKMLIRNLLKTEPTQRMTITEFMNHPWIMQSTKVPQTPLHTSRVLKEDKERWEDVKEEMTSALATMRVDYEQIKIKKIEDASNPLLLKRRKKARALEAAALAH
Chain of Myosin light chain kinase, smooth muscle (Homo sapiens) (Q15746 whole entry): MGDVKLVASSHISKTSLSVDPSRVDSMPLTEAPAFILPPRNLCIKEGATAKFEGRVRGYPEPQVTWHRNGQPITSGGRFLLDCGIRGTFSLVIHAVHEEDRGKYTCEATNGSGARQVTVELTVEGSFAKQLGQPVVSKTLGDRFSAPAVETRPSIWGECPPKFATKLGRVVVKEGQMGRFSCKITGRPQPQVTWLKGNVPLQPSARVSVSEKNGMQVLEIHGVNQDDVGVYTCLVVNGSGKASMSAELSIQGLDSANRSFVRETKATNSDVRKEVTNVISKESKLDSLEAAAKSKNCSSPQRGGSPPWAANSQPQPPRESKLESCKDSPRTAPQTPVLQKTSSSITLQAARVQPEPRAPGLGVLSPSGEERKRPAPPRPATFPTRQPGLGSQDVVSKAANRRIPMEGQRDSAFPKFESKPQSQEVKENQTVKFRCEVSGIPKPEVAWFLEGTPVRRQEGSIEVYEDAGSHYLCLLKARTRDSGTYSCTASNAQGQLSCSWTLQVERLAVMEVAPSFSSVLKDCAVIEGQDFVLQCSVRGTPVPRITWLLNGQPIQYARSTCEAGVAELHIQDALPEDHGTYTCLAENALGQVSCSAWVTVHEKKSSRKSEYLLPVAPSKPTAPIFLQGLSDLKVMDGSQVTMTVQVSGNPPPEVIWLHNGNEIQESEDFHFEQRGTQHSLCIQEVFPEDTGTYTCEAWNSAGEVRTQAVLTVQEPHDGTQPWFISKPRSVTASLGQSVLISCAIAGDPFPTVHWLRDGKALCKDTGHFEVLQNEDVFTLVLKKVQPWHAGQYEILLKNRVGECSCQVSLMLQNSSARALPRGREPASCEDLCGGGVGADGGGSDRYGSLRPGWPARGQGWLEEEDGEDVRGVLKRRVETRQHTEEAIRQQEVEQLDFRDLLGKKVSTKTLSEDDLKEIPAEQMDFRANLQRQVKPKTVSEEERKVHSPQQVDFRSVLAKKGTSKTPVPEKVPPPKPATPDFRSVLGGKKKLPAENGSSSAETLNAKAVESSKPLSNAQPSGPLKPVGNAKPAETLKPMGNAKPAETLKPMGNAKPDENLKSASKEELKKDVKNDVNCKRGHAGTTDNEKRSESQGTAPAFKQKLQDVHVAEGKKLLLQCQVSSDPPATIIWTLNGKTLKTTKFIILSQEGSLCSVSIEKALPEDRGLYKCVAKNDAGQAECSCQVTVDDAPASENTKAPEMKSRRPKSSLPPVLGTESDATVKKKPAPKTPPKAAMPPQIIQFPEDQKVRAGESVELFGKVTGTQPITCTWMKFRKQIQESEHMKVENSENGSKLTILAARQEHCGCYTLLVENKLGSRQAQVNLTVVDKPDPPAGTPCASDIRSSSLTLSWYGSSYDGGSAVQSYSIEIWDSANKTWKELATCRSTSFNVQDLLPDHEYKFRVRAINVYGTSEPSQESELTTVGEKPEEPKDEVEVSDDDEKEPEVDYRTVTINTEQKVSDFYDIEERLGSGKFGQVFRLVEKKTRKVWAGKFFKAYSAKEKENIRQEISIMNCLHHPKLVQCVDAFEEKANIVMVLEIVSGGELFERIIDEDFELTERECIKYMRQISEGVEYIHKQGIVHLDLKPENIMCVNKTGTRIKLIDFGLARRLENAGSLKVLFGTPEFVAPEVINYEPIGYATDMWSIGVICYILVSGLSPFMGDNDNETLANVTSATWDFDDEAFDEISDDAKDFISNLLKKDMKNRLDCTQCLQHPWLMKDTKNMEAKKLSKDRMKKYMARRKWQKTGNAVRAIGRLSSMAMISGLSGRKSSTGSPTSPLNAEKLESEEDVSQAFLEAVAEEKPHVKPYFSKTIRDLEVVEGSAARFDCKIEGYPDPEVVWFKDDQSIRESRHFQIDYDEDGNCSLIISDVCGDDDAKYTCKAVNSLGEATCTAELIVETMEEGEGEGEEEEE
Chain of Tyrosine-protein kinase FRK (Homo sapiens) (P42685 whole entry): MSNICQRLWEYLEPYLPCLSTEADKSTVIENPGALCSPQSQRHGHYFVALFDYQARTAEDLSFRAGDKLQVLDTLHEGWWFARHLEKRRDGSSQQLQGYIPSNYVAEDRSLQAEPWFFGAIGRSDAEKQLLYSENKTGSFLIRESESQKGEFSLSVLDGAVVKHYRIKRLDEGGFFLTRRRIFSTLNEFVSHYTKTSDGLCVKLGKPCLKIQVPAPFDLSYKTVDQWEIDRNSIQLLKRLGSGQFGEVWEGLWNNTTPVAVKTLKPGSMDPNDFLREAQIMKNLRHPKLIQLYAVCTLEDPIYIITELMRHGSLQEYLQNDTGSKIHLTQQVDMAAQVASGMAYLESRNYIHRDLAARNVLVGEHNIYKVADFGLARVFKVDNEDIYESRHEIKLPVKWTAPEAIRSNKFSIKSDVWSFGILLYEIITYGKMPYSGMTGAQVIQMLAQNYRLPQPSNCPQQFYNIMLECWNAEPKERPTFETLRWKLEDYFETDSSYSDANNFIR
Chain of Histamine H3 receptor (Homo sapiens) (Q9Y5N1 whole entry): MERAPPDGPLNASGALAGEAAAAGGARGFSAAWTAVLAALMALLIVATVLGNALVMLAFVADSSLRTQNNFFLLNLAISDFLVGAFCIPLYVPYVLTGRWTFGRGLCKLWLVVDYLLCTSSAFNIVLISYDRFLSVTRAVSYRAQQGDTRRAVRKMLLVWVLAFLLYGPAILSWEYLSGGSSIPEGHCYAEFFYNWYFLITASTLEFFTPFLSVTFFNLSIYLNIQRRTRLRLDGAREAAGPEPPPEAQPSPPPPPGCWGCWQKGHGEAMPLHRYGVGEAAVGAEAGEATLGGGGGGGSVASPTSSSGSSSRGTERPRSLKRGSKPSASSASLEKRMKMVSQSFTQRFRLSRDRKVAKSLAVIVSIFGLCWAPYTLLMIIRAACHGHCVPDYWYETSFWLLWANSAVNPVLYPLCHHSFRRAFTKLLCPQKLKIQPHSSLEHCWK
Chain of Cyclin-G-associated kinase (Homo sapiens) (O14976 whole entry): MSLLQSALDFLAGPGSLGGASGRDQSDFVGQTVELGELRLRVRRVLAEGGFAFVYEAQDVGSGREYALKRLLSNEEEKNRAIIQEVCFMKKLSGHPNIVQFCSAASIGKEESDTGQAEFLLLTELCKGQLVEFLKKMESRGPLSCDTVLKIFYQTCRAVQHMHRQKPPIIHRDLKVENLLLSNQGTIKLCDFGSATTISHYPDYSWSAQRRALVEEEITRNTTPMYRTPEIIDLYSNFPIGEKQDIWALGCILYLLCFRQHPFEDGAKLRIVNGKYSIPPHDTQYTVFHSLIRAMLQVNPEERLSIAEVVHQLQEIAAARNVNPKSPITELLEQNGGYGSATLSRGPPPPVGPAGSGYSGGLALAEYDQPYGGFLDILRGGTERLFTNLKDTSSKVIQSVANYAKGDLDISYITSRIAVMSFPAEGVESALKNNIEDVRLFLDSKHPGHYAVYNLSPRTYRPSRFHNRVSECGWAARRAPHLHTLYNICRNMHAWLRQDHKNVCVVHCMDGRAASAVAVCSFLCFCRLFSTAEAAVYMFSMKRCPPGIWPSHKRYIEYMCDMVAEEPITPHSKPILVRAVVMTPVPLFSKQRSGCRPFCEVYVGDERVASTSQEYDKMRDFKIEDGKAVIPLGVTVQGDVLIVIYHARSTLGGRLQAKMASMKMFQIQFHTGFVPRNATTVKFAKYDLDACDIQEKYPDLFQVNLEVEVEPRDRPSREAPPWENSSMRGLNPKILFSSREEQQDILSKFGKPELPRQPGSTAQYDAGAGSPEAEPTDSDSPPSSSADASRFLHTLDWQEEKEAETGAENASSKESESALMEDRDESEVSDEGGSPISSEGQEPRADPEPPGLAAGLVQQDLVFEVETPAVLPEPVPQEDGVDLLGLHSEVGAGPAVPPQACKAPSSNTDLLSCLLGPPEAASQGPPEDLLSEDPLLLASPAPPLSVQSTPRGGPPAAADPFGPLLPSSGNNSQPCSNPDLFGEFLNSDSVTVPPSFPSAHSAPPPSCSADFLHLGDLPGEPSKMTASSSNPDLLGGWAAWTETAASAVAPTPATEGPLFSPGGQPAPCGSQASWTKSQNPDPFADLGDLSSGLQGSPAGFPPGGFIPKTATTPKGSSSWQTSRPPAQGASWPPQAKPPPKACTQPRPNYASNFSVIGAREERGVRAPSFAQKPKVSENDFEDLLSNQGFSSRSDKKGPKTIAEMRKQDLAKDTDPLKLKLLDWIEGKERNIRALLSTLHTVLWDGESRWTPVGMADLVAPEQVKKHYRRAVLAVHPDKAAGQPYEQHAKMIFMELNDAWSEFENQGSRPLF

CCC(=N\O)/C(C)=C/c1ccc(F)c(C)c1 [A-226]
inactive: residual activity [1] 100% | residual activity [2] 83% | residual activity [3] 89% | residual activity [4] 80% | residual activity [5] 100% | residual activity [6] 95% | residual activity [7] 83% | residual activity [8] 97% | residual activity [9] 100% | residual activity [10] 100% | residual activity [11] 100% | residual activity [12] 80% | residual activity [13] 96% | residual activity [14] 94% | residual activity [15] 100% | residual activity [16] 100% | residual activity [17] 94% | residual activity [18] 99% | residual activity [19] 88% | residual activity [20] 75% | residual activity [21] 93% | residual activity [22] 78% | residual activity [23] 56% | residual activity [24] 79% | residual activity [25] 100% | residual activity [26] 87% | residual activity [27] 100% | residual activity [28] 98% | residual activity [29] 99% | residual activity [30] 100% | residual activity [31] 100% | residual activity [32] 100% | residual activity [33] 100% | residual activity [34] 93% | residual activity [35] 100% | residual activity [36] 100% | residual activity [37] 100% | residual activity [38] 94% | residual activity [39] 100% | inhibition [40] 4.54% | inhibition [41] 16.7% | inhibition [42] -0.3% | inhibition [43] 10.8% | inhibition [44] 15.7%

CCC(=N\O)/C(C)=C/c1ccc(F)cc1 [A-079]
inactive: residual activity [1] 69% | residual activity [2] 84% | residual activity [3] 83% | residual activity [4] 87% | residual activity [5] 88% | residual activity [6] 89% | residual activity [7] 83% | residual activity [8] 100% | residual activity [9] 77% | residual activity [10] 100% | residual activity [11] 93% | residual activity [12] 100% | residual activity [13] 99% | residual activity [14] 87% | residual activity [15] 87% | residual activity [16] 85% | residual activity [17] 69% | residual activity [18] 100% | residual activity [19] 76% | residual activity [20] 100% | residual activity [21] 100% | residual activity [22] 81% | residual activity [23] 100% | residual activity [24] 82% | residual activity [25] 100% | residual activity [26] 89% | residual activity [27] 86% | residual activity [28] 99% | residual activity [29] 91% | residual activity [30] 100% | residual activity [31] 100% | residual activity [32] 85% | residual activity [33] 78% | residual activity [34] 75% | residual activity [35] 83% | residual activity [36] 73% | residual activity [37] 74% | residual activity [38] 97% | residual activity [39] 65% | inhibition [40] 13.9% | inhibition [41] 14.7% | inhibition [42] 4.32% | inhibition [43] 9.43% | inhibition [44] 8.29%
